Data taken from PubChem BioAssay (NCI).
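Each compound was tested at five concentrations against cells in 96-well plates for 48 hours. GI50 marks 50% less growth. TGI: total growth inhibition.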

Assays:
Test in all cases: NCI anticancer screen, dose series, 48 h
HT29 colon = system: HT29 colon
SR leukemia = system: SR leukemia
HOP-92 NSCLC = system: HOP-92 NSCLC
NCI-H522 lung = system: NCI-H522 lung
OVCAR-4 ovarian = system: OVCAR-4 ovarian
IGROV1 ovarian = system: IGROV1 ovarian
A549 NSCLC = system: A549 NSCLC
BT-549 breast = system: BT-549 breast
RPMI-8226 leukemia = system: RPMI-8226 leukemia
OVCAR-3 ovarian = system: OVCAR-3 ovarian
MALME-3M melanoma = system: MALME-3M melanoma
HCT-15 colon = system: HCT-15 colon
MCF7 breast = system: MCF7 breast
ACHN renal = system: ACHN renal
LOX IMVI melanoma = system: LOX IMVI melanoma
HCT-116 colon = system: HCT-116 colon
K-562 leukemia = system: K-562 leukemia
HS 578T breast = system: HS 578T breast
CCRF-CEM leukemia = system: CCRF-CEM leukemia
SF-539 CNS = system: SF-539 CNS
SW-620 colon = system: SW-620 colon
SNB-19 CNS = system: SNB-19 CNS
HCC-2998 colon = system: HCC-2998 colon
SNB-75 CNS = system: SNB-75 CNS
MDA-MB-435 = system: MDA-MB-435
UO-31 renal = system: UO-31 renal
DU-145 prostate = system: DU-145 prostate
786-0 renal = system: 786-0 renal
HOP-62 NSCLC = system: HOP-62 NSCLC
OVCAR-5 ovarian = system: OVCAR-5 ovarian
KM12 colon = system: KM12 colon
SK-MEL-2 melanoma = system: SK-MEL-2 melanoma
T-47D breast = system: T-47D breast
SF-268 CNS = system: SF-268 CNS
RXF 393 renal = system: RXF 393 renal
SN12C renal = system: SN12C renal
OVCAR-8 ovarian = system: OVCAR-8 ovarian
COLO 205 colon = system: COLO 205 colon
CAKI-1 renal = system: CAKI-1 renal
NCI-H460 lung = system: NCI-H460 lung
NCI/ADR-RES ovarian = system: NCI/ADR-RES ovarian
NCI-H226 lung = system: NCI-H226 lung
TK-10 renal = system: TK-10 renal
SK-MEL-5 melanoma = system: SK-MEL-5 melanoma
HL-60(TB) leukemia = system: HL-60(TB) leukemia
A498 renal = system: A498 renal
MDA-MB-231 breast = system: MDA-MB-231 breast
UACC-62 melanoma = system: UACC-62 melanoma
M14 melanoma = system: M14 melanoma
SK-MEL-28 melanoma = system: SK-MEL-28 melanoma
SK-OV-3 ovarian = system: SK-OV-3 ovarian
MOLT-4 leukemia = system: MOLT-4 leukemia
NCI-H23 lung = system: NCI-H23 lung
PC-3 prostate = system: PC-3 prostate

Q: Which results are given for `CC(=O)OC1CC(C)c2c(Cl)ncnc21` (stereo not drawn)?
A: GI50 (HT29 colon): > 100 µM; TGI (HT29 colon): > 100 µM; GI50 (SR leukemia): 78.2 µM; TGI (SR leukemia): > 100 µM; GI50 (HOP-92 NSCLC): > 100 µM; TGI (HOP-92 NSCLC): > 100 µM; GI50 (NCI-H522 lung): 18 µM; TGI (NCI-H522 lung): 41.7 µM; GI50 (OVCAR-4 ovarian): > 100 µM; TGI (OVCAR-4 ovarian): > 100 µM; GI50 (IGROV1 ovarian): > 100 µM; TGI (IGROV1 ovarian): > 100 µM; GI50 (A549 NSCLC): > 100 µM; TGI (A549 NSCLC): > 100 µM; GI50 (BT-549 breast): > 100 µM; TGI (BT-549 breast): > 100 µM; GI50 (RPMI-8226 leukemia): > 100 µM; TGI (RPMI-8226 leukemia): > 100 µM; GI50 (OVCAR-3 ovarian): > 100 µM; TGI (OVCAR-3 ovarian): > 100 µM; GI50 (MALME-3M melanoma): > 100 µM; TGI (MALME-3M melanoma): > 100 µM; GI50 (HCT-15 colon): > 100 µM; TGI (HCT-15 colon): > 100 µM; GI50 (MCF7 breast): > 100 µM; TGI (MCF7 breast): > 100 µM; GI50 (ACHN renal): > 100 µM; TGI (ACHN renal): > 100 µM; GI50 (LOX IMVI melanoma): > 100 µM; TGI (LOX IMVI melanoma): > 100 µM; GI50 (HCT-116 colon): > 100 µM; TGI (HCT-116 colon): > 100 µM; GI50 (K-562 leukemia): > 100 µM; TGI (K-562 leukemia): > 100 µM; GI50 (HS 578T breast): > 100 µM; TGI (HS 578T breast): > 100 µM; GI50 (CCRF-CEM leukemia): 50.1 µM; TGI (CCRF-CEM leukemia): > 100 µM; GI50 (SF-539 CNS): > 100 µM; TGI (SF-539 CNS): > 100 µM; GI50 (SW-620 colon): > 100 µM; TGI (SW-620 colon): > 100 µM; GI50 (SNB-19 CNS): > 100 µM; TGI (SNB-19 CNS): > 100 µM; GI50 (HCC-2998 colon): > 100 µM; TGI (HCC-2998 colon): > 100 µM; GI50 (SNB-75 CNS): > 100 µM; TGI (SNB-75 CNS): > 100 µM; GI50 (MDA-MB-435): > 100 µM; TGI (MDA-MB-435): > 100 µM; GI50 (UO-31 renal): > 100 µM; TGI (UO-31 renal): > 100 µM; GI50 (DU-145 prostate): > 100 µM; TGI (DU-145 prostate): > 100 µM; GI50 (786-0 renal): > 100 µM; TGI (786-0 renal): > 100 µM; GI50 (HOP-62 NSCLC): > 100 µM; TGI (HOP-62 NSCLC): > 100 µM; GI50 (OVCAR-5 ovarian): > 100 µM; TGI (OVCAR-5 ovarian): > 100 µM; GI50 (KM12 colon): > 100 µM; TGI (KM12 colon): > 100 µM; GI50 (SK-MEL-2 melanoma): > 100 µM; TGI (SK-MEL-2 melanoma): > 100 µM; GI50 (T-47D breast): > 100 µM; TGI (T-47D breast): > 100 µM; GI50 (SF-268 CNS): > 100 µM; TGI (SF-268 CNS): > 100 µM; GI50 (RXF 393 renal): > 100 µM; TGI (RXF 393 renal): > 100 µM; GI50 (SN12C renal): > 100 µM; TGI (SN12C renal): > 100 µM; GI50 (OVCAR-8 ovarian): > 100 µM; TGI (OVCAR-8 ovarian): > 100 µM; GI50 (COLO 205 colon): > 100 µM; TGI (COLO 205 colon): > 100 µM; GI50 (CAKI-1 renal): 45.7 µM; TGI (CAKI-1 renal): > 100 µM; GI50 (NCI-H460 lung): > 100 µM; TGI (NCI-H460 lung): > 100 µM; GI50 (NCI/ADR-RES ovarian): > 100 µM; TGI (NCI/ADR-RES ovarian): > 100 µM; GI50 (NCI-H226 lung): > 100 µM; TGI (NCI-H226 lung): > 100 µM; GI50 (TK-10 renal): > 100 µM; TGI (TK-10 renal): > 100 µM; GI50 (SK-MEL-5 melanoma): > 100 µM; TGI (SK-MEL-5 melanoma): > 100 µM; GI50 (HL-60(TB) leukemia): > 100 µM; TGI (HL-60(TB) leukemia): > 100 µM; GI50 (A498 renal): > 100 µM; TGI (A498 renal): > 100 µM; GI50 (MDA-MB-231 breast): > 100 µM; TGI (MDA-MB-231 breast): > 100 µM; GI50 (UACC-62 melanoma): > 100 µM; TGI (UACC-62 melanoma): > 100 µM; GI50 (M14 melanoma): > 100 µM; TGI (M14 melanoma): > 100 µM; GI50 (SK-MEL-28 melanoma): > 100 µM; TGI (SK-MEL-28 melanoma): > 100 µM; GI50 (SK-OV-3 ovarian): > 100 µM; TGI (SK-OV-3 ovarian): > 100 µM; GI50 (MOLT-4 leukemia): > 100 µM; TGI (MOLT-4 leukemia): > 100 µM; GI50 (NCI-H23 lung): > 100 µM; TGI (NCI-H23 lung): > 100 µM; GI50 (PC-3 prostate): > 100 µM; TGI (PC-3 prostate): > 100 µM
